In PMC3006138, “Fexinidazole – A New Oral Nitroimidazole Drug Candidate Entering Clinical Development for the Treatment of Sleeping Sickness” (PLoS Neglected Tropical Diseases, 2010):
Several values for one entry are separate records, joined by “and”; a condition that tells them apart may be missing. Equal entries are not always repeated. Where two headings read alike, the source gives them in different places.

Tests used:
rat liver cells = experiment: Ex vivo unscheduled DNA synthesis; format: in vivo; conditions: 10 mg/kg, positive control
Description: Groups of young male Sprague-Dawley rats received fexinidazole at doses of 500, 1000, or 2000 mg/kg orally, and the livers were sampled either 2–4 h or 12–14 h after administration. Hepatocyte suspensions were prepared and incubated in the presence of […] thymidine. Slides of fixed hepatocytes were coated in photographic emulsion and stored for 14 days at 4°C in the dark. The silver grains above the nuclei or cytoplasm (background) were counted, providing a measure of DNA uptake during DNA repair. The difference between these two counts indicated the extent of DNA repair (nuclear net grain count).

[1] = One-electron reduction potential by pulse radiolysis; format: physicochemical
Description: One-electron reduction potentials were determined by pulse radiolysis following an established procedure.

[2] = system: T. b. rhodesiense (STIB 900); experiment: In vitro trypanocidal assay (Alamar Blue); format: cell-based, Trypanosoma brucei rhodesiense; conditions: Trypanosoma brucei, 72 h; read-out: IC50
Description: (§1) 10 µL of Alamar Blue was added for the final 3 h to determine viability. […] The IC50 values were calculated from the sigmoidal inhibition curves. For cytotoxicity, 4×10^4/mL L-6 rat skeletal myoblast cells were used, and incubations and assessments carried out as above.

[3] = system: T. b. gambiense (STIB 930); experiment: In vitro trypanocidal assay (Alamar Blue); format: cell-based, Trypanosoma brucei gambiense; conditions: Trypanosoma brucei, 72 h; read-out: IC50
Description: Parasites were cultured with or without the test article at a concentration of 3×10^4/mL in Minimal Essential Medium, according to Baltz et al., with the following modifications: 0.2 mM 2-mercaptoethanol, 1 mM Na-pyruvate, 0.5 mM hypoxanthine and 15% heat inactivated horse serum at 37°C in 5% CO2 in 96-well microtitre plates for 72 h. 10 µL of Alamar Blue was added for the final 3 h to determine viability. The assay was assessed by reading the fluorescence in each well at an excitation wavelength of 536 nm and at an emission wavelength of 588 nm. The IC50 values were calculated from the sigmoidal inhibition curves. For cytotoxicity, 4×10^4/mL L-6 rat skeletal myoblast cells were used, and incubations and assessments carried out as above.

L-6 rat myoblast cells = experiment: Cytotoxicity assay; format: cell-based; conditions: 72 h, read-out: IC50
Description: as §1

[4] = Hepatocyte intrinsic clearance and metabolite profile; format: in vitro ADME, mouse; conditions: male, CD-1, mouse, cryopreserved hepatocytes, 1 µM
Description: (§2) Fexinidazole was incubated with cryopreserved hepatocytes from male CD-1 mice, male Sprague Dawley rats, male beagle dogs, male cynomolgus monkeys, and from pooled white or African-American human donor samples (purchased commercially), at concentrations of 1 µM and 10 µM. […] The incubated samples were analyzed by LC-MS after extraction into acetonitrile.
(§3) A quality control analysis of fexinidazole was performed via 1H-NMR in DMSO and LC- […]
(§4) provided by the Swiss Tropical Institute (Basel, Switzerland).
(§5) Reagents and solvents were of analytical grade and obtained from Sigma-Aldrich (St. Louis, […]
(§6) Cryopreserved hepatocytes from the male CD1 mouse, lot CSI; male Sprague Dawley rat, lot LPL; male beagle dog, lot BWX; male cynomolgus monkey, lot EHH; and pooled human samples, lot MJI, were purchased from In Vitro Technologies Inc (Baltimore, Maryland, […]
(§7) 5.4. In vitro Incubations
(§8) On the day of the experiment a 10 mM stock solution of fexinidazole in DMSO was prepared and, within 3 hours, aliquots of this freshly prepared solution, after suitable dilution, were added to the incubation matrix, to reach fexinidazole final concentrations of 1 and 10 µM. The final percentage of DMSO was 0.01% in the incubation samples for the […]
(§9) On the day of experiment, the cryopreserved hepatocytes were thawed following the detailed instructions provided by the supplier.
(§10) The number of viable cells was determined using a Trypan Blue exclusion method.
(§11) 5.4.1. Intrinsic Clearance Study […]
(§12) µM with mouse, rat, dog, monkey and human hepatocytes (300000 cells/mL for the mouse and 1 million cells/mL for the other species) in a final incubation volume of 0.75 mL […]
(§13) Incubations were performed in duplicate in a 48-well plate under shaking. Sampling was performed using an automatic liquid handling system (Multiprobe II EX, Packard). At 0, 1, 5, 10, 15, 20, 30, 60 and 120 minutes, 50 µL aliquots of the incubates were taken, then 80 µL of ice-cold acetonitrile and 20 µL of 1 µM warfarin in acetonitrile (internal standard) were added, and samples centrifuged at 2000 rpm for 20 min. The supernatant was analyzed by LC-MS/MS. […]
(§14) the medium alone at t = 0 and 120 minutes.
(§15) For the determination of phase I and phase II activity of hepatocytes, 7-ethoxycoumarin (7-EC) 1 µM, and 7-hydroxycoumarin (7-HC) 30 µM were used as positive controls and incubated under the same conditions as fexinidazole. Aliquots of incubates were taken at 0, 10, 20, 30, 60 and 120 minutes and processed as fexinidazole samples.
(§16) 5.4.2. Metabolite Profile Study
(§17) For metabolite profiling, fexinidazole was incubated at a concentration of 10 µM with mouse, rat, dog, monkey and human hepatocytes (300000 cells/mL for the mouse and 1 million cells/mL for the other species) in a final incubation volume of 2 mL Leibovitz L-15 […]
(§18) Aliquots of the incubation samples were taken at t = 0, 30 and 120 minutes; the metabolism was stopped by the addition of an equal volume of cold acetonitrile and the samples centrifuged at 1500 rpm for 20 min. The supernatant was stored at -20°C until analysis. Control incubations were performed with the compound in the medium alone […]
(§19) 5.5. Analysis of Samples for Intrinsic Clearance Determination
(§20) The analysis of the samples for intrinsic clearance determination was performed by an LC-MS/MS method, using the following conditions:
(§21) HPLC Equipment and Conditions
(§22) HPLC system Agilent 1100 binary pump (Agilent, Palo Alto, USA)
(§23) Autosampler CTC Pal (Alfatech, San Jose, USA)
(§24) Analytical column Guard Column SB-C8 4.6 x 12.5 mm, 5 µm (Zorbax)
(§25) Column temperature ambient
(§26) Mobile phase A 10 mM ammonium formate pH 4.0: acetonitrile (95:5, v:v)
(§27) Mobile phase B 10 mM ammonium formate pH 4.0: acetonitrile (5:95, v:v) […]
(§28) Gradient conditions Step Total time (min) flow (µL/min) %A % B […]
(§29) MS Equipment and Conditions
(§30) Mass spectrometer API 4000 Triple Quadrupole (MDS-Sciex, Toronto, […]
(§31) Source Turbo Ion Spray (TIS)
(§32) Ion mode Positive for fexinidazole and 7-EC.
(§33) Negative for 7-HC, 7-HC sulphate and 7-HC glucuronide.

[5] = as above; format: in vitro ADME, rat; conditions: male, Sprague Dawley, rat, cryopreserved hepatocytes, 1 µM
Description: as §2, §3, §4, §5, §6, §7, §8, §9, §10, §11, §12, §13, §14, §15, §16, §17, §18, §19, §20, §21, §22, §23, §24, §25, §26, §27, §28, §29, §30, §31, §32, §33

[6] = as above; format: in vitro ADME, dog; conditions: male, beagle, dog, cryopreserved hepatocytes, 1 µM
Description: as §2, §3, §4, §5, §6, §7, §8, §9, §10, §11, §12, §13, §14, §15, §16, §17, §18, §19, §20, §21, §22, §23, §24, §25, §26, §27, §28, §29, §30, §31, §32, §33

[7] = as above; format: in vitro ADME, cynomolgus monkey; conditions: male, cynomolgus, cynomolgus monkey, cryopreserved hepatocytes, 1 µM
Description: as §2, §3, §4, §5, §6, §7, §8, §9, §10, §11, §12, §13, §14, §15, §16, §17, §18, §19, §20, §21, §22, §23, §24, §25, §26, §27, §28, §29, §30, §31, §32, §33

[8] = as above; format: in vitro ADME, human; conditions: human, cryopreserved pooled hepatocytes, 1 µM
Description: as §2, §3, §4, §5, §6, §7, §8, §9, §10, §11, §12, §13, §14, §15, §16, §17, §18, §19, §20, §21, §22, §23, §24, §25, §26, §27, §28, §29, §30, §31, §32, §33

[9] = as above; format: in vitro ADME, human; conditions: human
Description: as §2
Fexinidazole sulfoxide, lot 1106-I-0170, 99.3% purity, and fexinidazole sulfone, lot 1106-I-0171, 99.9% purity, were provided by the Sponsor.
Cryopreserved hepatocytes of five single donors, lots EHI, REL, KSE […]
ZIJ and MRS, were purchased from In Vitro Technologies Inc (Baltimore, Maryland, USA).
The certificates of analysis are reported in Appendix 1.
as §5
7.5. In Vitro Incubations
as §8
The cryopreserved hepatocytes were thawed according to the supplier’s procedure and the number of viable cells was determined using the Trypan Blue exclusion method. Viabilities were 92% for lot EHI, 89% for lot REL, 82% for lot KSE, 86% for lot ZIJ and 86% for lot MRS in the intrinsic clearance study. In the metabolite profile study viabilities were 91% for lot EHI, 90% for lot REL, 85% for lot KSE, 84% for lot ZIJ and 87% for lot MRS.
Afterwards, the same amount of viable cells for each donor were pooled and used for the incubations of fexinidazole.
7.5.1. Intrinsic Clearance Study […]
as §13, with “µM with pooled human hepatocytes (1 million cells/mL) in a final incubation volume of 1 mL Leibovitz L-15 medium, at 37°C. Incubations” for “Incubations”
The chemical stability of fexinidazole was checked by incubating the compound at 37°C in the medium alone at t = 0 and 120 minutes.
For the determination of phase I and phase II activities of hepatocytes, 7-ethoxycoumarin (7-ETC) 1 µM, and 7-hydroxycoumarin (7-HC) 30 µM were used as positive controls and incubated under the same conditions as fexinidazole. Aliquots of incubates were taken at 0, 1, 5, 10, 15, 20, 30, 60 and 120 minutes and processed as fexinidazole samples.
7.5.2. Metabolite Profile Study
For metabolite profiling, fexinidazole was incubated at a concentration of 10 µM with pooled human hepatocytes (1 million cells/mL) in a final incubation volume of 2 mL Leibovitz L-15 medium, at 37°C. Aliquots of the incubation samples were taken at t = 0, 30 and 120 minutes; the metabolism was stopped by the addition of an equal volume of cold acetonitrile and the samples centrifuged at 1100 rpm for 20 min. The supernatant was stored at -20°C until analysis. Control incubations were performed with the compound in the medium alone for 120 minutes.
7.6. Analysis of the Samples of Intrinsic Clearance Study
as §20, §21
HPLC system 1100 binary pump (Agilent, Palo Alto, USA)
Autosampler 2777 (Waters)
as §24, §25, §26, §27, §28

For `CN(C)N=O` [dimethylnitrosamine, reference compound], the “Net nuclear grain count (2–4 h)” value (rat liver cells) was 8.9.
For `Cc1ncc([N+](=O)[O-])n1CCO` [metronidazole, reference compound], the “single electron redox potential” value [1] was −516 mV.
With `N=C(N)c1ccc(OCCCCCOc2ccc(C(=N)N)cc2)cc1` [Pentamidine] the IC50 [2] was 0.003 µg/mL and 9 nM, the IC50 [3] was 0.002 µg/mL and 10 nM and the IC50 (L-6 rat myoblast cells) was 3 µg/mL and 9 µM.
Compound `CCOc1ccc2ccc(=O)oc2c1` [7-ethoxycoumarin, reference compound] has a half-life at 1 µM [4] of 2.6 min, a CLint scaled at 1 µM ([4]; read-out: CLint in vitro) of 2380 mL/min/kg and a hepatocyte CLint at 1 µM ([4]; read-out: CLint in vitro) of 901 µL/min/1e6 cells. It also gave a half-life at 1 µM [5] of 13.2 min, a CLint scaled at 1 µM ([5]; read-out: CLint in vitro) of 251 mL/min/kg and a hepatocyte CLint at 1 µM ([5]; read-out: CLint in vitro) of 52.4 µL/min/1e6 cells. The half-life at 1 µM [6] was 1.7 min, the CLint scaled at 1 µM ([6]; read-out: CLint in vitro) was 3110 mL/min/kg and the hepatocyte CLint at 1 µM ([6]; read-out: CLint in vitro) was 405 µL/min/1e6 cells. For the same compound, the half-life at 1 µM [7] was 2.5 min, the CLint scaled at 1 µM ([7]; read-out: CLint in vitro) was 1480 mL/min/kg and the hepatocyte CLint at 1 µM ([7]; read-out: CLint in vitro) was 272 µL/min/1e6 cells. It also gave a half-life at 1 µM [8] of 4.8 min, a CLint scaled at 1 µM ([8]; read-out: CLint in vitro) of 345 mL/min/kg and a hepatocyte CLint at 1 µM ([8]; read-out: CLint in vitro) of 144 µL/min/1e6 cells. It also gave a half-life at 1 µM [9] of 6.4 min, a CLint scaled at 1 µM ([9]; read-out: CLint in vitro) of 258 mL/min/kg and a hepatocyte CLint at 1 µM ([9]; read-out: CLint in vitro) of 108 µL/min/1e6 cells.
